Measurements from the supplement of paper PMC9763283.
Where a name gives a salt, the structure may show the parent alone.

Assays:
Assay in all cases: area under growth-rate inhibition curve (AUC GRI) (dimensionless (GR-based AUC)); higher = less growth inhibition
Conditions in all cases: exposure time: 72 h; concentrations: 0.1, 1, 10 uM
BT474-LTR = system: BT474-LTR
In short: (§1)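 Six breast cancer cell line models were used: two triple-negative lines, plus parental HER2+ lines and HER2+ lines resistant to a two-drug combination, each plated at an optimised log-phase density and treated with compound at 0.1, 1 or 10 µM for 72 h. After fixation in 4% paraformaldehyde, nuclei were stained with Hoechst 33342 or DAPI, imaged and counted. Growth was corrected using Day 0 plates, untreated Day 3 plates and DMSO controls, with 2 biological replicates. These corrected counts gave the area under the growth-rate inhibition curve.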

SKBR3-LTR = system: SKBR3-LTR
In short: as §1

SKBR3-P = system: SKBR3-P
In short: as §1

MDA-MB-468 = system: MDA-MB-468
In short: as §1

BT474-P = system: BT474-P
In short: as §1

MDA-MB-231 = system: MDA-MB-231
In short: as §1

SMILES | area under growth-rate inhibition curve (BT474-LTR) | area under growth-rate inhibition curve (SKBR3-LTR) | area under growth-rate inhibition curve (SKBR3-P) | area under growth-rate inhibition curve (MDA-MB-468) | area under growth-rate inhibition curve (BT474-P) | area under growth-rate inhibition curve (MDA-MB-231)
Br.Cc1ccc(Sc2ccccc2N2CCNCC2)c(C)c1 | 0.912 | 0.929 | 0.872 | 0.885 | 0.865 | 0.879
CC(C)N(CCC(c1ccccc1)c1cc(CO)ccc1O)C(C)C (configuration not stated) | 1.06 | 1.03 | 0.957 | 1.04 | 1.04 | 1.03
CC(C)c1cc(-c2ccc(F)c3ccccc23)nc(N)n1 | 1.08 | 1.07 | 1.03 | 1 | 1.03 | 0.999
CCCCOc1ccc(C(=O)Nc2ccc(F)cc2F)cc1 | 1.06 | 1.05 | 1.01 | 1.01 | 1.02 | 1.02
CCCN1CCO[C@H]2c3cc(O)ccc3OC[C@@H]21 | 1.06 | 1.05 | 1.03 | 1.03 | 1.08 | 1.02
CCc1c(C(=O)NCCc2ccc(N3CCCCC3)cc2)[nH]c2ccc(Cl)cc12 | 1.06 | 1.09 | 0.994 | 0.994 | 1.04 | 1.02
Cc1cc(NC(=O)Nc2ccc(N(C)C)cc2)c2cc(F)cc(F)c2n1 | 0.977 | 0.958 | 1 | 0.951 | 0.963 | 0.936
CN1CCC(c2c[nH]c3ccc(O)cc23)CC1 | 0.996 | 0.997 | 1.02 | 0.984 | 0.996 | 1
CN1CCN(C(=O)c2cc3cc(Cl)ccc3[nH]2)CC1 | 1.06 | 1.05 | 0.993 | 1.04 | 1.02 | 1.04
CN1CCN(c2nc3ccccc3nc2Cl)CC1 | 1.01 | 1.01 | 0.987 | 0.986 | 0.997 | 0.97
CNCc1ccc(C)c(NC(=O)c2ccc(Nc3nc(-c4ccccc4)c4ccccc4n3)cc2)c1 | 1.08 | 0.914 | 0.876 | 0.856 | 0.853 | 0.877
COc1cc(NC(=O)c2ccccn2)ccc1Cl | 1.07 | 1.05 | 0.979 | 1.01 | 1.01 | 1.05
COc1cc(OC)c(NC(=O)Nc2cc(C)on2)cc1Cl | 1.05 | 1.06 | 1 | 1.02 | 0.977 | 1.03
COc1ccc(NS(=O)(=O)c2sc3ccc(Cl)cc3c2C)cc1N1CCNCC1 | 1.03 | 1.05 | 0.997 | 0.964 | 0.976 | 1.05
COc1ccccc1N1CCN(CCN(C(=O)C2CCCCC2)c2ccccn2)CC1.O=C(O)/C=C\C(=O)O | 1.06 | 1.04 | 0.976 | 0.993 | 1.02 | 1.03
Cc1nc(C#Cc2ccnc(Cl)c2)c(C)n1-c1ccc(OC(F)(F)F)cc1 | 1.09 | 0.968 | 1 | 1 | 0.969 | 1.03
CC1CCN(CCC2CCCN2S(=O)(=O)c2cccc(O)c2)CC1.Cl (configuration not stated) | 1.06 | 1.05 | 1 | 1.02 | 1.04 | 1.02
O=C(NCc1ccncc1)C12CC3CC(C1)CC(c1ccc(Cl)cc1)(C3)C2 | 1.08 | 1.04 | 1.02 | 1.01 | 0.985 | 1.04
O=C(Nc1cccc(Cl)c1)c1ccccn1 | 1.06 | 1.04 | 1.01 | 1.02 | 1.02 | 1.03
O=C(NCC1CCOCC1)c1cnc(Nc2ccc(Cl)cc2Cl)nc1C(F)(F)F | 1.04 | 1.05 | 1.02 | 1.01 | 0.983 | 1

SMILES | area under growth-rate inhibition curve (BT474-LTR) | area under growth-rate inhibition curve (SKBR3-LTR) | area under growth-rate inhibition curve (SKBR3-P) | area under growth-rate inhibition curve (MDA-MB-468) | area under growth-rate inhibition curve (BT474-P) | area under growth-rate inhibition curve (MDA-MB-231)
O=C(c1ccc(F)cc1)N1CCC[C@H](c2nc(-c3ccc(F)cc3)no2)C1 | 1.07 | 1.11 | 1.01 | 1.04 | 1.02 | 1.01
Nc1nc(NCCc2ccc(O)cc2)nc2nc(-c3ccco3)nn12 | 1.03 | 0.956 | 0.822 | 0.973 | 1.01 | 1.03
Nc1nc2c(cnn2CCc2ccccc2)c2nc(-c3ccco3)nn12 | 0.94 | 0.902 | 0.666 | 0.781 | 0.99 | 1
O=S(=O)(c1ccccc1)c1cnc2c(N3CCNCC3)cccc2c1 | 1.08 | 1.05 | 0.997 | 1.01 | 0.99 | 1.03
N#Cc1cc(CN2CCC(Nc3ncnc4sc(Cl)cc34)CC2)ccc1F.O=C(O)/C=C\C(=O)O | 0.875 | 0.964 | 0.839 | 0.885 | 0.879 | 0.988
OC[C@H]1O[C@@H](c2ccc(Cl)c(Cc3ccc(O[C@H]4CCOC4)cc3)c2)[C@H](O)[C@@H](O)[C@@H]1O | 1.07 | 1.09 | 1.03 | 1.05 | 1.03 | 1.03
Cc1ccc(OCC(O)C(C)NC(C)C)c2c1CCC2.[Cl-].[H+] (configuration not stated) | 1.11 | 1.07 | 1.01 | 1.05 | 1.04 | 1.06
CCNC1(C(N)=O)CCN(c2ncnc3c2nc(-c2ccccc2Cl)n3-c2ccc(Cl)cc2)CC1.[Cl-].[H+] | 1.06 | 1.04 | 1.01 | 1 | 0.991 | 0.999
OC(CN1CCN(c2cccc(Cl)c2)CC1)C(c1ccccc1)c1ccccc1.[Cl-].[Cl-].[H+].[H+] (configuration not stated) | 1.07 | 1.05 | 0.982 | 0.981 | 1.04 | 1.04
O=C1CCCC2C3CCCN4CCCC(CN12)C34 (single isomer, unassigned; (+)) [(+)-Matrine] | 1.08 | 1.09 | 1.02 | 1.01 | 1.06 | 1.03
CCC(=C(c1ccc(O)cc1)c1ccc(OCCN(C)C)cc1)c1ccccc1 [4-hydroxytamoxifen] | 0.936 | 0.934 | 0.979 | 0.896 | 0.865 | 0.935
Nc1ncnc2c1c(I)cn2[C@@H]1O[C@H](CO)[C@H](O)C1O (some centres not stated) [5-Iodotubercidin] | 0.673 | 0.627 | 0.632 | 0.73 | 0.676 | 0.705
CCN(CC)CCCCN1c2ccccc2Oc2ccc(Cl)cc21.Cl [10-DEBC hydrochlorid] | 0.995 | 1.05 | 1.04 | 1.06 | 1.04 | 1.04
CC(=O)[C@@]1(O)CC[C@H]2[C@@H]3CCC4=CC(=O)CC[C@]4(C)[C@H]3CC[C@@]21C [17-Hydroxyprogesterone] | 1.07 | 1.03 | 1 | 1 | 1.02 | 1.02
C[C@@]12N[C@@H](Cc3ccccc31)c1ccccc12.O=C(O)/C=C/C(=O)O [(-)-MK 801 Maleate] | 1.08 | 1.06 | 1.03 | 1.04 | 1.03 | 1.03
CN1CCc2cccc3c2[C@H]1Cc1ccc(O)c(O)c1-3.[Cl-].[H+] [(R)-(-)-Apomorphine hydrochloride] | 0.963 | 1.04 | 0.965 | 0.977 | 0.933 | 1.03
CCN(CC)C(=O)c1ccc(C2=CC3(CCNCC3)Oc3cccc(O)c32)cc1.Cl [ADL5859 HCl] | 1.07 | 1.1 | 1.03 | 1.04 | 1.05 | 1.03
CN1CCCCC1Cn1cc(C(=O)c2cc([N+](=O)[O-])ccc2I)c2ccccc21 (configuration not stated) [AM1241] | 1 | 1.02 | 0.998 | 0.972 | 0.977 | 0.987
CC(=O)NCCCS(=O)(=O)[O-].CC(=O)NCCCS(=O)(=O)[O-].[Ca+2] [Acamprosate calcium] | 1.01 | 1.03 | 1.01 | 1 | 1.01 | 0.995
CCCC(=O)Nc1ccc(OCC(O)CNC(C)C)c(C(C)=O)c1.[Cl-].[H+] (configuration not stated) [Acebutolol HCl] | 1.11 | 1.07 | 1.04 | 1.03 | 1.05 | 1.03

SMILES | area under growth-rate inhibition curve (BT474-LTR) | area under growth-rate inhibition curve (SKBR3-LTR) | area under growth-rate inhibition curve (SKBR3-P) | area under growth-rate inhibition curve (MDA-MB-468) | area under growth-rate inhibition curve (BT474-P) | area under growth-rate inhibition curve (MDA-MB-231)
CC(=O)OCC[N+](C)(C)C.[Cl-] [Acetylcholine Chloride] | 1.09 | 1.05 | 1.02 | 1.04 | 1.03 | 1.04
O=C(OC1C[N+]2(CCCOc3ccccc3)CCC1CC2)C(O)(c1cccs1)c1cccs1.[Br-] (configuration not stated) [Aclidinium Bromide] | 0.997 | 1.02 | 0.988 | 1.03 | 1.01 | 1.03
CNCC(=O)c1ccc(O)c(O)c1.Cl [Adrenalone HCl] | 1.1 | 1.07 | 1.03 | 1.02 | 1.04 | 0.964
CN1CCC(=C2c3ccccc3CCn3c(C=O)cnc32)CC1 [Alcaftadine] | 1.04 | 1.06 | 1.02 | 1.03 | 1 | 1.04
COc1cc2nc(N(C)CCCNC(=O)C3CCCO3)nc(N)c2cc1OC.[Cl-].[H+] (configuration not stated) [Alfuzosin HCl] | 1.09 | – | 1.01 | – | 1.03 | –
O=c1ncnc2[nH][nH]cc1-2 [Allopurinol] | 1.1 | 1.07 | 1.03 | 1.06 | 1.06 | 1.03
CNC(=O)[C@@H](c1ccccc1)N1CCc2cc(OC)c(OC)cc2[C@@H]1CCc1ccc(C(F)(F)F)cc1.Cl [Almorexant HCl] | 1.07 | 0.988 | 0.977 | 1 | 0.976 | 1.01
CN(C)CCc1c[nH]c2ccc(CS(=O)(=O)N3CCCC3)cc12.O=C(O)CC(O)C(=O)O [Almotriptan Malate] | 1.09 | 1.06 | 1.02 | 1.04 | 1.02 | 1.02
C=CCC1(O)CCC2C3CCC4=CC(=O)CCC4=C3C=CC21C (configuration not stated) [Altrenogest] | 1.01 | 1.08 | 1.04 | 1 | 0.953 | 1.03
C[C@H]1CN(C[C@H](Cc2ccccc2)C(=O)NCC(=O)O)CC[C@@]1(C)c1cccc(O)c1 [Alvimopan] | 1.03 | 1.04 | 1.02 | 1.03 | 0.995 | 1.03
Cl.NC12CC3CC(CC(C3)C1)C2 [Amantadine HCl] | 1.08 | 1.05 | 1.05 | 1.02 | 1.05 | 1.03
COC(c1ccccc1)(c1ccccc1)C(Oc1nc(C)cc(C)n1)C(=O)O (configuration not stated) [Ambrisentan] | 1.05 | 1.06 | 1.03 | 1.04 | 1.01 | 1.05
CC(NC(C)(C)C)C(=O)c1cccc(Cl)c1 (configuration not stated) [Amfebutamone HCl] | 1.03 | 1.03 | 1.01 | 1.01 | 1.02 | 0.987
CCN1CCCC1CNC(=O)c1cc(S(=O)(=O)CC)c(N)cc1OC (configuration not stated) [Amisulpride] | 0.985 | 0.975 | 1.02 | 1.01 | 1.01 | 0.988
CN(C)CCC=C1c2ccccc2CCc2ccccc21.Cl [Amitriptyline HCl] | 1.08 | 1.09 | 0.983 | 0.997 | 1.03 | 1.03
COc1ccc(C(=O)N2CCCC2=O)cc1 [Aniracetam] | 1.08 | 1 | 1.01 | 1.02 | 1.04 | 1.01
CNCCCN1c2ccccc2CCc2ccccc21.Cl [Desipramine hydrochloride] | 0.997 | 1.06 | – | – | 0.985 | 1.03
CCCCC(=O)N(Cc1ccc(-c2ccccc2-c2nnn[nH]2)cc1)[C@H](C(=O)O)C(C)C [Valsartan] | 1.02 | – | 1.02 | 1.04 | 0.974 | 1.04
